Measured values: paper PMC12162873, “Modulating phosphatase DUSP22 with BML-260 ameliorates skeletal muscle wasting via Akt independent JNK-FOXO3a repression” (EMBO Molecular Medicine, 2025)
Values joined by “and” are separate entries in the source; they are usually repeats but may differ in a detail not shown here. Equal values may be shown once.

How the values were obtained:
C2C12 myotubes = experiment: Real-time qPCR of gene expression in C2C12 myotubes; assay type: cell-based, mouse; conditions: for atrogin-1 and MuRF-1 expression, qPCR: 10 μM Dex 24 h, 12.5 μM BML-260; for DUSP22 expression, qPCR, Average / MURF-1 expression, qPCR, Average / atrogin-1 (ATRO) expression, qPCR, Average: Vehicle average = 1, n = 5; for DUSP22 expression, qPCR / MURF-1 expression, qPCR / atrogin-1 (ATRO) expression, qPCR: Vehicle average = 1, replicates
Experimental: (§1) C2C12 murine skeletal muscle myoblasts were purchased from Koram Biotech Corp. (Seoul, Republic of Korea). Prior to experiments, mycoplasma contamination was eliminated using the MycoXpert Mycoplasma Removal Reagent (MYX-B, CAPRICORN) following the manufacturer’s protocol. To ensure complete removal, all cells were passaged three times after treatment before being used in subsequent experiments. No STR profiling was recently undertaken. Myoblasts were cultured in growth media (GM), containing Dulbecco’s modified Eagle’s medium (DMEM), 10% fetal bovine serum, and 1% penicillin and streptomycin (PenStrep). C2C12 myoblasts were differentiated into myotubes at more than 80% confluence by culture in differentiation media (DM), containing DMEM supplemented with 2% horse serum and PenStrep, for 96 h. To induce atrophy, the myotubes were treated with DM plus 10 μM Dex for 24 h. BML-260 and SP600125 were purchased from Santa Cruz Biotechnology, TX, USA (cat. no. sc-223822 and sc-200635).
The StepOnePlus Real Time PCR System (Applied Biosystems, UK) was used to measure the mRNA level of the genes of interest. An AccuPower RT PreMix (Bioneer, Republic of Korea) was used to synthesize the cDNA from total RNA. The real-time PCR (qPCR) was carried out according to the manufacturer’s instructions, and the previously published protocol (Lee et al, [2020]). Details of the primers used in this study are shown in Appendix Tables S1 and S2.
(§2) Gene knockdown was carried out following the manufacturer’s protocol using a 6-well culture plate format (Thermo Fischer Scientific, Waltham, USA). Lipofectamine 3000 was used for the transfection step (Thermo Fischer Scientific, Waltham, USA). siRNA transfection was performed on day 3 of myoblast differentiation into myotubes. C2C12 myotubes and primary human myotubes were transfected with 75 pmol siRNA duplex. Details of the siRNAs used in this study are shown in Appendix Table S3.

C57BL/6J mice = experiment: Dex treatment mouse model of skeletal muscle atrophy, BML-260 treatment; assay type: in vivo; conditions: for mean body weight: 15 mg/kg Dex, 5 mg/kg BML-260, IP daily
Experimental: The Dex model of muscle atrophy was based on the previously published protocol (Kim et al, [2022]). In brief, 12-week-old male C57BL/6J mice were treated as follows: 1) Vehicle (DMSO in PBS pH 7.4 with 5% Tween 80) alone, 2) 15 mg/kg Dex dissolved in vehicle, 3) 15 mg/kg Dex and 5 mg/kg BML-260 (n = 5 per group). Mice were treated daily by intraperitoneal (IP) injection for 14 d and then assessed for muscle condition. The 5 mg/kg in vivo dose was selected based on a previous study that carried out bilateral injection of BML-260 into the fat pads of male 8-week-old C57BL/6J mice (Feng et al, [2019]).
Grip strength was measured using the BIO-GS3 device (Bioseb, FL, USA). Mice were placed onto the grid with all four paws attached and gently pulled backwards to measure the grip strength until the grid was released. The maximum grip value, used to represent muscle force, was calculated using 3 trials with an interval of 30 s.
Muscle fatigue was measured the previously described protocol (Chiu et al, [2018]), with two different models using the Rotarod. One was the constant model and the other was the accelerating model that is inherent in the rotarod device. In brief, the mice were accommodated to training before the commencement of the fatigue task using an accelerating rotarod (Ugo Basile, Italy). The mice were trained at a constant speed of 13 rpm for 15 min. After a recovery period of 15 min, the mice were placed on the rotarod adjusted to accelerate from 13 to 25 rpm in 3 min for 15 min. 24 h later, the muscle fatigue test was carried out with speeds ramping from 13 to 25 rpm in 3 min, and maintained at 25 rpm for a 30 min interval. Latency to fall off the rotarod was measured for each mouse. A fatigued mouse was classified as falling off 4 times within a 1 min period, which also terminated the test.
Mice were anesthetized using ketamine (22 mg/kg; Yuhan, Republic of Korea) and xylazine (10 mg/kg; Bayer, Republic of Korea) in saline by IP injection. The quadriceps, gastrocnemius, soleus and TA muscles were then dissected and weighed. For histological analysis, the muscles were fixed by overnight incubation with 4% paraformaldehyde in PBS pH 7.4 at 4 °C. Paraffin sectioning and H&E staining were provided by the Animal Housing Facility, Gwangju Institute of Science and Technology, Republic of Korea (5 µm muscle sections using a Thermo Scientific HistoStar (Thermofisher). H&E staining was carried out with a kit (Merck, Germany)). For immunohistochemistry, TA muscle sections were permeabilized for 15 min (PBS with 0.5% Triton X-100), blocked for 1 h (5% BSA) and incubated with the primary antibody overnight at 4 °C (a list of primary and secondary antibodies used in this study are provided in Appendix Tables S4 and S5, respectively). After washing with PBS 3 times for 5 min, the sections were incubated with the secondary antibody at RT for 1 h. The nuclei were counterstained with DAPI in ProLong™ Gold Antifade Mountant (Invitrogen, P36935). Digital images were acquired with Leica DM 2500 (Leica Microsystems). Cross sectional area (CSA) and fiber size distribution was measured using the NIH imaging software Image J 64. To CSA and size distribution of different fiber types was calculated in 4 muscle section as follows: type 2 A: 30–40 fibers measured; type 2B: at least 100 fibers measured; type 2X: 30–40 fibers measured.

C2C12 murine myotubes = experiment: Dex-induced C2C12 myotube atrophy: myotube diameter, fusion and differentiation indexes; assay type: cell-based, mouse; conditions: 10 μM Dex 24 h, 12.5 μM BML-260
Experimental: as §1
Fast myosin heavy chain 2 (MYH2) immunocytochemistry was used to visualize murine myotubes and measure myotube diameter, following the previously published protocol (Chen et al, [2016]). After mounting, fluorescence images were captured in 5 different regions using a DMI 3000 B microscope (Leica, Germany), and analyzed using the NIH imaging software Image J 64. 100 myotubes containing at least three nuclei were measured in each experimental group. Myotubes were primarily examined in the central area of each well, as opposed to randomly selected fields. The mid-point of the myotube was used to measure the diameter. For nuclear counts, we chose myotubes containing three or more nuclei. The observer was aware of the treatment conditions.
To assess myoblast fusion into multinucleate myotubes, nuclei number within fast myosin (MYH2)-positive cells were measured using the NIH imaging software Image J 64. The differentiation index was calculated as the percentage of nuclei in fast myosin (MYH2)-positive cells (nuclei in myotubes/total nuclei). Myotubes were classified as MYH-positive cells containing at least 4 nuclei. Myotubes were measured in groups of at least 100, with at least 7500 nuclei measured in each group.
as §2

[1] = C2C12 myotubes treated with Dex
[2] = dexamethasone-treated C2C12 myotubes
[3] = dexamethasone-treated C2C12 myotubes, listed as BML
[4] = 15 mg/kg Dex and 5 mg/kg BML-260, IP daily 14 d

C[C@@H]1C[C@H]2[C@@H]3CCC4=CC(=O)C=C[C@]4(C)[C@@]3(F)[C@@H](O)C[C@]2(C)[C@@]1(O)C(=O)CO [Dex, dexamethasone]
atrogin-1 and MuRF-1 expression, qPCR (C2C12 myotubes): upregulated | DUSP22 expression in myotubes undergoing Dex-induced atrophy, RNA Seq and qPCR (C2C12 myotubes; C2C12 myotubes): upregulated | DUSP22 expression, qPCR, Average (C2C12 myotubes; [1]): 1.867 | DUSP22 expression, qPCR (C2C12 myotubes; [1]): 1.751 and 1.762 and 2.076 and 2.045 and 1.699 | DUSP22 expression, qPCR, Average (C2C12 myotubes; [2]): 1.628 | MURF-1 expression, qPCR, Average (C2C12 myotubes; [2]): 2.64 | atrogin-1 (ATRO) expression, qPCR, Average (C2C12 myotubes; [2]): 4.291 | DUSP22 expression, qPCR (C2C12 myotubes; [2]): 2.068 and 1.836 and 1.276 and 1.511 and 1.449 | MURF-1 expression, qPCR (C2C12 myotubes; [2]): 3.398 and 2.859 and 1.96 and 2.287 and 2.697 | atrogin-1 (ATRO) expression, qPCR (C2C12 myotubes; [2]): 4.546 and 3.961 and 4.048 and 4.199 and 4.699 | mean body weight (C57BL/6J mice): significantly reduced | DUSP22 expression, qPCR (C57BL/6J mice; TA muscle of C57BL/6 mice treated with Dex, Vehicle average = 1, individual animals): 2.47 and 1.789 and 1.328 and 1.032 | myotube atrophy (myotube diameter) (C2C12 murine myotubes): underwent atrophy

O=C(O)c1ccc(N2C(=O)C(=Cc3ccccc3)SC2=S)cc1 (stereo in doubt) [BML-260]
atrogin-1 and MuRF-1 expression, qPCR (C2C12 myotubes): downregulated | additional effect on Dex-induced atrogene expression in the presence of DUSP22 gene knockdown (C2C12 myotubes; Dex-treated C2C12 myotubes): no significant additional effect | DUSP22 expression, qPCR, Average (C2C12 myotubes; [2]): 1.419 | MURF-1 expression, qPCR, Average (C2C12 myotubes; [2]): 2.125 | atrogin-1 (ATRO) expression, qPCR, Average (C2C12 myotubes; [2]): 2.99 | DUSP22 expression, qPCR (C2C12 myotubes; [3]): 1.3832 and 1.906 and 1.483 and 1.176 and 1.145 | MURF-1 expression, qPCR (C2C12 myotubes; [3]): 2.278 and 2.851 and 2.228 and 1.487 and 1.782 | atrogin-1 (ATRO) expression, qPCR (C2C12 myotubes; [3]): 3.37 and 3.403 and 3.232 and 2.06 and 2.886 | TA muscle mass (C57BL/6J mice; [4]): increased | grip strength (C57BL/6J mice; [4]): increased the mean grip strength value, but it did not achieve statistical significance | myofiber area distribution (C57BL/6J mice; [4]): shifted the myofiber area distribution towards larger sized fibers | rotarod muscle performance, acceleration and constant models (C57BL/6J mice; [4]): significantly recovered muscle performance | upregulation of atrogin-1, MuRF-1 and DUSP22 in TA muscle, western blot (C57BL/6J mice; [4]): inhibited | myofiber CSA (C57BL/6J mice; 15 mg/kg Dex and 5 mg/kg BML-260, IP daily 14 d, TA muscle per text): significantly increased | mean body weight (C57BL/6J mice): recovered | myotube atrophy (myotube diameter) (C2C12 murine myotubes): prevented myotube atrophy | myotube fusion and differentiation indexes (C2C12 murine myotubes): recovered | proportion of larger-sized myotubes (C2C12 murine myotubes): maintained the proportion of larger-sized myotubes
